Assay results published in PubChem BioAssay (NCI).
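All cell lines were grown in 96-well plates and treated with compound for 48 hours. At the TGI there is no net growth.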

How the values were obtained:
Experiment in all cases: NCI-60 cell line screen, 48 h
A549 NSCLC = test system: A549 NSCLC
SK-MEL-2 melanoma = test system: SK-MEL-2 melanoma
TK-10 renal = test system: TK-10 renal
NCI-H460 lung = test system: NCI-H460 lung
SF-268 CNS = test system: SF-268 CNS
HCT-116 colon = test system: HCT-116 colon
786-0 renal = test system: 786-0 renal
SNB-75 CNS = test system: SNB-75 CNS
UO-31 renal = test system: UO-31 renal
LOX IMVI melanoma = test system: LOX IMVI melanoma
NCI-H23 lung = test system: NCI-H23 lung
SF-539 CNS = test system: SF-539 CNS
SR leukemia = test system: SR leukemia
MCF7 breast = test system: MCF7 breast
HS 578T breast = test system: HS 578T breast

COc1cc2c(cc1OC)C1(c3ccc(Cl)cc3)ON=C(c3ccccc3)N1CS2 (stereo not drawn)
TGI (A549 NSCLC): > 100 µM
TGI (SK-MEL-2 melanoma): > 100 µM
TGI (TK-10 renal): > 100 µM
TGI (NCI-H460 lung): > 100 µM
TGI (SF-268 CNS): > 100 µM
TGI (HCT-116 colon): > 100 µM
TGI (786-0 renal): > 100 µM
TGI (SNB-75 CNS): > 100 µM
TGI (UO-31 renal): > 100 µM
TGI (LOX IMVI melanoma): > 100 µM
TGI (NCI-H23 lung): > 100 µM
TGI (SF-539 CNS): > 100 µM
TGI (SR leukemia): > 100 µM

CCC[C@H](C)C[C@H](C)C[C@H](C)/C=C(\C)[C@@H](O)[C@@H](C)C(=O)CC
TGI (A549 NSCLC): 39.4 µM
TGI (MCF7 breast): 42.7 µM
TGI (SK-MEL-2 melanoma): 44.7 µM
TGI (TK-10 renal): 38.3 µM
TGI (NCI-H460 lung): 53.4 µM
TGI (SF-268 CNS): 39.6 µM
TGI (HCT-116 colon): 33.9 µM
TGI (786-0 renal): 35.7 µM
TGI (SNB-75 CNS): > 100 µM
TGI (UO-31 renal): 41.7 µM
TGI (LOX IMVI melanoma): 37.8 µM
TGI (NCI-H23 lung): 33.3 µM
TGI (SF-539 CNS): 37 µM
TGI (HS 578T breast): 51.8 µM

Fc1ccccc1C1SCc2nc3cc4ccccc4cc3n21 (stereo not drawn)
TGI (A549 NSCLC): > 100 µM
TGI (MCF7 breast): > 100 µM
TGI (SK-MEL-2 melanoma): > 100 µM
TGI (TK-10 renal): > 100 µM
TGI (NCI-H460 lung): > 100 µM
TGI (SF-268 CNS): > 100 µM
TGI (HCT-116 colon): > 100 µM
TGI (786-0 renal): 51.5 µM
TGI (SNB-75 CNS): > 100 µM
TGI (UO-31 renal): > 100 µM
TGI (NCI-H23 lung): > 100 µM
TGI (HS 578T breast): 96.4 µM

CCCc1ccc(NCc2cc(OC)c(OC)c(OC)c2)cc1
TGI (A549 NSCLC): > 100 µM
TGI (SK-MEL-2 melanoma): 44.2 µM
TGI (TK-10 renal): > 100 µM
TGI (NCI-H460 lung): > 100 µM
TGI (SF-268 CNS): 79.2 µM
TGI (HCT-116 colon): 48.3 µM
TGI (786-0 renal): 50.3 µM
TGI (SNB-75 CNS): 94.8 µM
TGI (UO-31 renal): 56.6 µM
TGI (LOX IMVI melanoma): 30.7 µM
TGI (NCI-H23 lung): 69.2 µM
TGI (SF-539 CNS): 63.3 µM

CCN(CC)Cc1sc2nc3ccccc3n2c1-c1ccc(OC)cc1
TGI (A549 NSCLC): > 100 µM
TGI (MCF7 breast): > 100 µM
TGI (SK-MEL-2 melanoma): > 100 µM
TGI (TK-10 renal): > 100 µM
TGI (SF-268 CNS): > 100 µM
TGI (HCT-116 colon): > 100 µM
TGI (786-0 renal): > 100 µM
TGI (SNB-75 CNS): > 100 µM
TGI (UO-31 renal): > 100 µM
TGI (LOX IMVI melanoma): > 100 µM
TGI (NCI-H23 lung): > 100 µM
TGI (HS 578T breast): > 100 µM

CC(NC(C)(C)C)C(=O)c1cccc(Cl)c1 (stereo not drawn)
TGI (A549 NSCLC): > 100 µM
TGI (SK-MEL-2 melanoma): > 100 µM
TGI (TK-10 renal): > 100 µM
TGI (NCI-H460 lung): > 100 µM
TGI (SF-268 CNS): > 100 µM
TGI (HCT-116 colon): > 100 µM
TGI (786-0 renal): > 100 µM
TGI (SNB-75 CNS): > 100 µM
TGI (LOX IMVI melanoma): > 100 µM
TGI (NCI-H23 lung): > 100 µM
TGI (SF-539 CNS): > 100 µM

Cc1ccc(N=Nc2c(O)c(C(=O)Nc3ccccc3)cc3ccccc23)c([N+](=O)[O-])c1
TGI (A549 NSCLC): > 100 µM
TGI (SK-MEL-2 melanoma): > 100 µM
TGI (TK-10 renal): > 100 µM
TGI (SF-268 CNS): > 100 µM
TGI (HCT-116 colon): > 100 µM
TGI (786-0 renal): > 100 µM
TGI (SNB-75 CNS): > 100 µM
TGI (UO-31 renal): > 100 µM
TGI (LOX IMVI melanoma): > 100 µM
TGI (NCI-H23 lung): > 100 µM
TGI (HS 578T breast): > 100 µM

COc1ccc2oc(=N)c(C(=O)Nc3ccccn3)cc2c1
TGI (A549 NSCLC): > 100 µM
TGI (MCF7 breast): > 100 µM
TGI (SK-MEL-2 melanoma): > 100 µM
TGI (NCI-H460 lung): > 100 µM
TGI (SF-268 CNS): > 100 µM
TGI (HCT-116 colon): > 100 µM
TGI (786-0 renal): > 100 µM
TGI (SNB-75 CNS): > 100 µM
TGI (LOX IMVI melanoma): > 100 µM
TGI (NCI-H23 lung): > 100 µM
TGI (HS 578T breast): > 100 µM
TGI (SR leukemia): > 100 µM

CNc1ccc(N)cc1C(=O)N1CCC[C@H]1CO
TGI (A549 NSCLC): > 100 µM
TGI (MCF7 breast): > 100 µM
TGI (SK-MEL-2 melanoma): > 100 µM
TGI (TK-10 renal): > 100 µM
TGI (SF-268 CNS): > 100 µM
TGI (HCT-116 colon): > 100 µM
TGI (786-0 renal): > 100 µM
TGI (SNB-75 CNS): > 100 µM
TGI (UO-31 renal): > 100 µM
TGI (LOX IMVI melanoma): > 100 µM
TGI (NCI-H23 lung): > 100 µM
TGI (SF-539 CNS): > 100 µM
TGI (HS 578T breast): > 100 µM

Nc1ccc(C(=O)NN2C(=O)C(Cl)C2c2ccccc2)cc1 (stereo not drawn)
TGI (A549 NSCLC): > 100 µM
TGI (SK-MEL-2 melanoma): > 100 µM
TGI (TK-10 renal): > 100 µM
TGI (NCI-H460 lung): > 100 µM
TGI (SF-268 CNS): > 100 µM
TGI (HCT-116 colon): > 100 µM
TGI (786-0 renal): > 100 µM
TGI (SNB-75 CNS): > 100 µM
TGI (UO-31 renal): > 100 µM
TGI (LOX IMVI melanoma): > 100 µM
TGI (NCI-H23 lung): > 100 µM
TGI (SF-539 CNS): > 100 µM

CC(C)=C/C=C1/CS(=O)(=O)C=C1C
TGI (A549 NSCLC): > 100 µM
TGI (MCF7 breast): > 100 µM
TGI (SK-MEL-2 melanoma): > 100 µM
TGI (TK-10 renal): > 100 µM
TGI (HCT-116 colon): > 100 µM
TGI (786-0 renal): > 100 µM
TGI (SNB-75 CNS): > 100 µM
TGI (UO-31 renal): > 100 µM
TGI (LOX IMVI melanoma): > 100 µM
TGI (NCI-H23 lung): > 100 µM
TGI (SF-539 CNS): > 100 µM

O=C(CSC1=NCCN1)Nc1ccccc1
TGI (A549 NSCLC): > 100 µM
TGI (SK-MEL-2 melanoma): 44.5 µM
TGI (TK-10 renal): 43.9 µM
TGI (NCI-H460 lung): > 100 µM
TGI (SF-268 CNS): 93.3 µM
TGI (HCT-116 colon): 59.6 µM
TGI (786-0 renal): 50.1 µM
TGI (SNB-75 CNS): 43.5 µM
TGI (UO-31 renal): > 100 µM
TGI (LOX IMVI melanoma): 39.2 µM
TGI (NCI-H23 lung): > 100 µM
TGI (HS 578T breast): 65.9 µM
TGI (SR leukemia): > 100 µM

O=C(Cc1ccccc1)NN1C(=O)C(Cl)C1c1ccccc1O (stereo not drawn)
TGI (A549 NSCLC): > 100 µM
TGI (SK-MEL-2 melanoma): > 100 µM
TGI (TK-10 renal): > 100 µM
TGI (NCI-H460 lung): 38.2 µM
TGI (SF-268 CNS): > 100 µM
TGI (HCT-116 colon): > 100 µM
TGI (786-0 renal): > 100 µM
TGI (SNB-75 CNS): > 100 µM
TGI (UO-31 renal): 36.8 µM
TGI (LOX IMVI melanoma): > 100 µM
TGI (NCI-H23 lung): > 100 µM
TGI (SR leukemia): > 100 µM

COc1cc(C(c2ccc3c(c2)OCO3)N2C(=O)CCC2C(=O)O)cc(OC)c1OC (stereo not drawn)
TGI (A549 NSCLC): > 100 µM
TGI (MCF7 breast): > 100 µM
TGI (SK-MEL-2 melanoma): > 100 µM
TGI (TK-10 renal): > 100 µM
TGI (NCI-H460 lung): > 100 µM
TGI (SF-268 CNS): > 100 µM
TGI (HCT-116 colon): > 100 µM
TGI (786-0 renal): > 100 µM
TGI (SNB-75 CNS): > 100 µM
TGI (UO-31 renal): > 100 µM
TGI (LOX IMVI melanoma): > 100 µM
TGI (NCI-H23 lung): > 100 µM
TGI (SF-539 CNS): > 100 µM
TGI (HS 578T breast): > 100 µM

O=C(O)CNC(=O)c1c2ccccc2nc2ccccc12
TGI (A549 NSCLC): > 100 µM
TGI (MCF7 breast): > 100 µM
TGI (SK-MEL-2 melanoma): > 100 µM
TGI (TK-10 renal): > 100 µM
TGI (NCI-H460 lung): > 100 µM
TGI (SF-268 CNS): > 100 µM
TGI (HCT-116 colon): > 100 µM
TGI (786-0 renal): > 100 µM
TGI (SNB-75 CNS): > 100 µM
TGI (UO-31 renal): > 100 µM
TGI (LOX IMVI melanoma): > 100 µM
TGI (NCI-H23 lung): > 100 µM
TGI (SF-539 CNS): > 100 µM
TGI (SR leukemia): > 100 µM

O=C1C[C@@H](c2ccccc2)O[C@@H](c2ccccc2)C1
TGI (A549 NSCLC): > 100 µM
TGI (MCF7 breast): > 100 µM
TGI (SK-MEL-2 melanoma): > 100 µM
TGI (NCI-H460 lung): > 100 µM
TGI (SF-268 CNS): > 100 µM
TGI (HCT-116 colon): > 100 µM
TGI (786-0 renal): > 100 µM
TGI (SNB-75 CNS): > 100 µM
TGI (UO-31 renal): > 100 µM
TGI (LOX IMVI melanoma): > 100 µM
TGI (NCI-H23 lung): > 100 µM
TGI (SF-539 CNS): > 100 µM
TGI (HS 578T breast): > 100 µM

CC(C)C1=CC23CCC4C(C)(C(=O)O)CCCC4(C)C2CC1C1C(=O)N(c2ccc(C(=O)O)cc2)C(=O)C13 (stereo not drawn)
TGI (A549 NSCLC): > 100 µM
TGI (MCF7 breast): > 100 µM
TGI (SK-MEL-2 melanoma): > 100 µM
TGI (TK-10 renal): > 100 µM
TGI (NCI-H460 lung): > 100 µM
TGI (SF-268 CNS): > 100 µM
TGI (HCT-116 colon): > 100 µM
TGI (786-0 renal): > 100 µM
TGI (SNB-75 CNS): > 100 µM
TGI (UO-31 renal): > 100 µM
TGI (LOX IMVI melanoma): > 100 µM
TGI (NCI-H23 lung): > 100 µM
TGI (SF-539 CNS): > 100 µM
TGI (HS 578T breast): > 100 µM
